{"source": "patent US9107941B2", "about": "“Methods and compositions for reducing L-pipecolic acid effects in animals” (SarTec Corporation, priority 2006, dated 2015)", "origin": "cited, not measured here", "key": {"chicks": {"tested_on": "chicks", "conditions": "ICV injection"}}, "data": [{"smiles": "O=C(O)[C@@H]1CCCCN1", "note": "[L-PIP, L-pipecolic acid]", "values": [{"measurement": "food intake", "setting": "chicks", "value": "inhibited food intake"}, {"measurement": "sleep-like behavior", "setting": "chicks", "value": "induced sleep-like behavior"}, {"measurement": "apoptosis in neuronal cells", "setting": "neuronal cells", "value": "induce apoptosis"}]}]}
